Results taken from patent US11370847B2, “Single domain antibodies directed against intracellular antigens” (Singh Biotechnology, LLC, priority 2014, dated 2022).
“And” between values parts separate entries of the source, which are not always exact repeats. Identical values can stand only once. Like-named read-outs stand apart in the source and are kept apart here. One block for each molecule: values may come before it.

Experiments:
STAT3 = STAT3 reporter GloResponse SIE-luc2P/HEK293 assay, IL-6 induction; format: cell-based; settings: for effect on IL-6 induction of the STAT3 reporter: 24 and 48 hours treatment, VHH13 and VHH69 at highest concentration, VHH14 at both concentrations;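 for all read-outs here: SIE-luc2P/HEK293 reporter cells stimulated with IL-6 at 40 ng/mL (EC80) after pretreatment, luciferase luminescence (RLU) read the following day, triplicate wells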
MDA-MB-231 cells = assay: MTT proliferation assay, MDA-MB-231; format: cell-based, human; settings: for Mean: mean absorbance;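 for all read-outs here: proliferation of cultured human cancer cells read by MTT, with treated groups compared against a vehicle control group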
SJSA-1 cells = assay: MTT proliferation assay, SJSA-1; format: cell-based, human; settings: SJSA-1; 72 hours; 50 μg/ml
PANC-1 cells = assay: MTT proliferation assay, PANC-1; settings: for Abs: 72 hours
SIE-luc2P/HEK293 cells = assay: BCA protein concentration of reporter cells; format: cell-based
[1] = target: T1, active human TNF-α full length protein (Homo sapiens, UniProt P01375); assay: TNF-α binding ELISA; settings: for detection in coated versus non-coated wells: 0.5 μg/mL coating antigen, sdAb at 1 μg/mL; for detection in TNF-α ELISA: Experiment 1, 1 μg/mL sdAb; for OD450 Values: Non-Coated wells (non-specific binding), sdAb 1 μg/mL
T1 construct: active human TNF-α full length protein; purchased Abcam
T1 sequence (P01375 77-233 limits assumed): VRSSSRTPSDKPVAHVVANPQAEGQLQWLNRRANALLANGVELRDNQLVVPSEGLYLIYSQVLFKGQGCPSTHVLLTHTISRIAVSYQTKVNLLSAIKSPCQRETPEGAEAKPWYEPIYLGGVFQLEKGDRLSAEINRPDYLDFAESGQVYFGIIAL
Experimental: In this Example, the binding of anti-TNF-α sdAbs to active human TNF-α full length protein was assessed using an enzyme linked immunosorbent assay (ELISA) format. Additionally, the feasibility of utilizing a secondary antibody targeted to the his tag portion of the sdAbs was assessed.
The test articles for this study were anti-TNF-α VHH62 (SEQ ID NO:47) sdAb, TNF-α VHH66 (SEQ ID NO:45) sdAb, and anti-TNF-α VHH69 (SEQ ID NO:46) sdAb (Experiment 1).
For the assays to assess the binding of the sdAbs to TNF-α protein (Experiment 1, 4 and 5), a standard sandwich ELISA format was utilized. […] Plates were incubated overnight at 2-8° C. After the incubation, plates were washed (3×) and blocked (3% Bovine Serum Albumin (BSA) in Phosphate Buffered Saline (PBS)) for at least one hour at room temperature.
After removal of the blocking buffer and washing (3×), samples were added to the appropriate wells of the ELISA plates and incubated at room temperature with shaking (150 rpm) for at least one hour. The secondary antibody (rabbit anti-llama biotinylated antibody at either a1:5,000 or 10,000 dilution) was then added to each well and incubated with shaking for at least one hour at room temperature.
After the incubation with secondary antibody, the plates were again washed (3×) and horseradish peroxidase (HRP) at either a 1:25,000 or 1:50,000 dilution was added to each well. Plates were incubated with shaking for at least one hour at room temperature. A final wash (3×) was performed followed by the addition of TMB (Tetramethylbenzidine) substrate. After a 20 to 25 minute incubation at room temperature, stop solution was added to halt the colorimetric reaction. The absorbance at 450 nm was measured on a VersaMax instrument utilizing SoftMax Pro GxP version 5.4 software from Molecular Devices (Sunnyvale, Calif.).
The final experiment performed was to confirm that the results from the ELISA testing were due to binding to the TNF-α protein and not non-specific binding of the sdAb. For this determination, a comparison was made between wells coated with 0.5 μg/mL of coating antigen and non-coated wells. […] This experiment confirms that the detection seen with the previous experiments was due to the specific binding of the VHH to the coating antigen and not due to non-specific binding.

[2] = system: rabbit anti-llama biotinylated antibody or his-probe (H-3) biotin labeled antibody; assay: ELISA of secondary antibody binding to coated sdAbs; settings: Experiment 3, sdAb coated at 1 μg/mL, stored 1:100 dilution
Experimental: Two assays (Experiment 2 and 3) were performed to assess the binding of the secondary antibody to the sdAbs. A similar ELISA method was utilized except the sdAbs were directly coated onto the assay plate at a concentration of 1 μg/mL. Plates were incubated overnight at 2-8° C. After the incubation, plates were washed (3×) and blocked (3% BSA in PBS) for at least one hour at room temperature.
After removal of the blocking buffer and washing (3×), the secondary antibodies, either rabbit anti-llama biotinylated antibody or his-probe (H-3) biotin labeled antibody at was then added at a 1:5,000 dilution to each well and incubated with shaking for at least one hour at room temperature. Only the rabbit anti-llama biotinylated antibody was used in Experiment 2. Both antibodies were run in parallel in Experiment 3.
After the incubation with secondary antibody, the plates were again washed (3×) and HRP at a 1:50,000 dilution was added to each well. Plates were incubated with shaking for at least one hour at room temperature. One last wash (3×) was performed followed by the addition of TMB substrate and plates were incubated at room temperature. For the anti-llama biotinylated antibody stop solution was added to halt the colorimetric reaction at 10 minutes. The his-probe (H-3) biotin labeled antibody was allowed to incubate for 20 minutes prior to stopping. The absorbance at 450 nm was measured as before.

TNF-α = target: T2, TNF-α (Homo sapiens, UniProt P01375); assay: Inhibition of TNF-α cytotoxicity against U937 by anti-TNF-α VHHs; format: cell-based; settings: constant dose of TNF-α at EC50
T2 construct: purchased Sigma-Aldrich
T2 sequence (P01375 77-233 limits assumed): as above
Experimental: The concentration of TNF-α required to show measurable modulation of activity in the U937 human […] cell line was evaluated by quantitation of the ATP present, which signals the presence of metabolically active cells using Promega's Cell Titer-Glo® Luminescent Cell Viability assay.
The U937 cells were seeded in a clear polystyrene 96-well microculture plate (Corning® Costar® 96-well flat bottom plate, Cat. #3997) in a total volume of 90 μL/well. After 24 hours of incubation in a humidified incubator at 37° C. with 5% CO2 and 95% air, 5 μL of 20×, serially diluted TNF-α in growth medium was added to each well in duplicate (10 pt dose response, highest concentration 20 ng/mL). Additionally, 5 μL of 20×, diluted staurosporine in growth medium was added to each well in duplicate (concentration 1 nM).
After 24 hours of culture in the presence of test agents, the concentration of compound required to show measurable modulation of TNF-α activity in the U937 cell line as evaluated by quantitation of the ATP present. Percent cell growth was calculated relative to untreated control wells. All tests were performed in duplicate at each concentration level.
The EC50 value for the test agents was estimated using Prism 6.05 by curve-fitting the data using the following four parameter-logistic equation: […]

[3] = 24 Hour Treatment Prior to IL6 Induction, higher conc.: VHH13 55.8 μg/mL, VHH14 84.3 μg/mL, BB1608 4.16 μM, VHH69 50.5 μg/mL
[4] = 24 Hour Treatment Prior to IL6 Induction, lower conc.: VHH13, VHH14, VHH69 10 μg/mL, BB1608 2 μM
[5] = 48 Hour Treatment Prior to IL6 Induction, higher conc.: VHH13 55.8 μg/mL, VHH14 84.3 μg/mL, BB1608 4.16 μM, VHH69 50.5 μg/mL
[6] = 48 Hour Treatment Prior to IL6 Induction, lower conc.: VHH13, VHH14, VHH69 10 μg/mL, BB1608 2 μM
[7] = Homo sapiens, PANC-1, 72 h, read-out: % Inhibition, Growth Inhibition of PANC-1 Cells
[8] = Rabbit anti-Llama Secondary Antibody

Molecule: CC(=O)c1cc2c(o1)C(=O)c1ccccc1C2=O [BBI608, napabucasin, reference compound]
Average RLU (STAT3; [3]): 33 RLU
Luminescence (replicate wells) (STAT3; [3]): 41 RLU and 28 RLU and 31 RLU
Fold-Induction RLU/RLU of −IL6 (STAT3; [4]): 0
Luminescence (replicate wells) (STAT3; [4]): 41 RLU and 33 RLU and 39 RLU
effect on IL-6 induction of the STAT3 reporter (STAT3): Inhibition of IL-6
Fold-Induction RLU/RLU of −IL6 (STAT3; [5]): 0
Luminescence (replicate wells) (STAT3; [5]): 32 RLU and 25 RLU and 31 RLU
Average RLU (STAT3; [6]): 33 RLU
Luminescence (replicate wells) (STAT3; [6]): 31 RLU and 26 RLU and 42 RLU

Molecule: MPT His Tag: SBT-100 produced by Microprotein Technologies, His tag preparation
inhibition compared with other SBT-100 preparations (MDA-MB-231 cells; MDA-MB-231): greatest inhibition
MTT absorbance, single replicates (MDA-MB-231 cells; MDA-MB-231, 50 μg/ml): 0.095 and 0.091 and 0.102 and 0.1 and 0.087 and 0.092
Mean (MDA-MB-231 cells; MDA-MB-231, 50 μg/ml): 0.0945
MTT absorbance, single replicates (MDA-MB-231 cells; MDA-MB-231, 100 μg/ml): 0.74 and 0.8 and 0.82
Mean (MDA-MB-231 cells; MDA-MB-231, 100 μg/ml): 0.079

Molecule: Curirx P04: SBT-100 produced by Curirx, P04 buffer sample
growth inhibition (SJSA-1 cells): significant growth inhibition

Molecule: Nc1ccn([C@@H]2O[C@H](CO)[C@@H](O)C2(F)F)c(=O)n1 [Gemcitabine]
Abs (PANC-1 cells; Gemcitabine Hydrochloride (Biovision #1759) 0.020 μM alone): 1.631
Abs (PANC-1 cells; Gemcitabine Hydrochloride (Biovision #1759) 0.039 μM alone): 1.550
Abs (PANC-1 cells; Gemcitabine Hydrochloride (Biovision #1759) 0.313 μM alone): 1.084
Abs (PANC-1 cells; Gemcitabine Hydrochloride (Biovision #1759) 0.625 μM alone): 1.001
Abs (PANC-1 cells; Gemcitabine Hydrochloride (Biovision #1759) 5 μM alone): 0.654
Abs (PANC-1 cells; Gemcitabine Hydrochloride (Biovision #1759) 10 μM alone): 0.576
inhibition at 0.02 µM (PANC-1 cells; Homo sapiens, PANC-1): 0%
inhibition at 0.039 µM (PANC-1 cells; Homo sapiens, PANC-1): 0%
inhibition at 0.313 µM (PANC-1 cells; Homo sapiens, PANC-1): 5%
inhibition at 0.625 µM (PANC-1 cells; Homo sapiens, PANC-1): 0%
inhibition at 5 µM (PANC-1 cells; Homo sapiens, PANC-1): 40%
inhibition at 10 µM (PANC-1 cells; Homo sapiens, PANC-1): 48%
inhibition at 5 µM (PANC-1 cells; [7]): 38%
inhibition at 10 µM (PANC-1 cells; [7]): 35%
inhibition at 10 µM (PANC-1 cells; Homo sapiens, PANC-1, 72 h, read-out: growth inhibition of PANC-1 cells): 48%

Molecule: MPT B1 (pH 5.0): SBT-100 produced by Microprotein Technologies
MTT absorbance, single replicates (MDA-MB-231 cells; MDA-MB-231, 50 μg/ml): 0.924 and 0.741 and 0.834 and 0.749 and 0.771 and 0.77
Mean (MDA-MB-231 cells; MDA-MB-231, 50 μg/ml): 0.798
MTT absorbance, single replicates (MDA-MB-231 cells; MDA-MB-231, 100 μg/ml): 0.65 and 0.656 and 0.624
Mean (MDA-MB-231 cells; MDA-MB-231, 100 μg/ml): 0.643

detection in TNF-α ELISA [1]: little to no detection
OD450 Values [1]: 0.007
OD450 Values ([2]; His-probe (H-3)): 0.153
OD450 Values [2, 8]: 0.443
B1: anti-TNF-α VHH69: anti-TNF-α sdAb, SEQ ID NO:46 (protein)
VHH: EVQLVESGGGSVLAGGSLRLSCVASGFTSRYNYMAWFRQAPGKEREGVATIGTASGSADYYGSVKDRFTISQDNAKNTVYLQMNSLKPEDTAMYYCAARTYGTISLTPSDYRYWGQGTLVTVSS
modifications: Camelid
Protein concentration (SIE-luc2P/HEK293 cells; [3]): 213
Protein concentration (SIE-luc2P/HEK293 cells; [4]): 237
Protein concentration (SIE-luc2P/HEK293 cells; [6]): 222
detection in coated versus non-coated wells [1]: detected in coated wells but not in non-coated wells
inhibition of TNF-α killing of U937 (TNF-α): inhibit killing of U937 by TNF-α
Average RLU (STAT3; [3]): 198596 RLU
Average RLU with Media Blank (STAT3; [3]): 198571 RLU
Fold-Induction RLU/RLU of −IL6 (STAT3; [3]): 434
Luminescence (replicate wells) (STAT3; [3]): 203139 RLU and 194320 RLU and 198330 RLU
Average RLU (STAT3; [4]): 169752 RLU
Average RLU with Media Blank (STAT3; [4]): 169726 RLU
Fold-Induction RLU/RLU of −IL6 (STAT3; [4]): 371
Luminescence (replicate wells) (STAT3; [4]): 159115 RLU and 184364 RLU and 165776 RLU
effect on IL-6 induction of the STAT3 reporter (STAT3): enhancement of the IL-6 induction
Average RLU (STAT3; [5]): 225726 RLU
Average RLU with Media Blank (STAT3; [5]): 225694 RLU
Fold-Induction RLU/RLU of −IL6 (STAT3; [5]): 452
Luminescence (replicate wells) (STAT3; [5]): 219104 RLU and 237816 RLU and 220259 RLU
Average RLU (STAT3; [6]): 172988 RLU
Average RLU with Media Blank (STAT3; [6]): 172955 RLU
Fold-Induction RLU/RLU of −IL6 (STAT3; [6]): 347
Luminescence (replicate wells) (STAT3; [6]): 155927 RLU and 191241 RLU and 171796 RLU

detection in TNF-α ELISA [1]: little to no detection
OD450 ([1]; Experiment 4, original and new receipt, dilutions starting at 1 μg/mL): < 0.2 OD450
OD450 Values [1]: −0.001
OD450 Values ([2]; His-probe (H-3)): 0.196
OD450 Values [2, 8]: 2.341
B2: anti-TNF-α VHH62: anti-TNF-α sdAb, SEQ ID NO:47 (protein)
VHH: QVQLVESGGGPVQAGETLRLSCTASGFTFAEADMGWYRQAPGHECELVSTITTEGITSEASSYYADSVRGRFTISRDNAKNMVYLQMNSLKPEDTAVYYCAPDPYAYSTYSDYCSWAQGTQGTLVTVSS
modifications: Camelid
detection in coated versus non-coated wells [1]: not detected in either coated or non-coated wells
inhibition of TNF-α killing of U937 (TNF-α): inhibit killing of U937 by TNF-α

B3: anti-STAT3 VHH14: second anti-STAT3 sdAb, SEQ ID NO:4 (protein)
VHH: QVQLVESGGGSVQAGGSLRLSCVASTYTGCMGWFRQAPGKEREGVAALSSRGFAGHYTDSVKGRFSISRDYVKNAVYLQMNTVKPEDAAMYYCAAREGWECGETWLDRTAGGHTYWGQGTLVTVSS
modifications: Camelid
effect on IL-6 induction of the STAT3 reporter (STAT3): enhancement of the IL-6 induction
